Test system: Epiderm construct
Experiment: Construct viability after vitrification and rewarming (metabolic activity)
Type: cell-based, human
Settings: αT and QVD added together to culture medium before and after vitrification
Method: Tissue Culture: Human epidermal models were obtained from commercial sources and maintained according to their specifications. All constructs were incubated in appropriate media for 24 hours under physiological tissue culture conditions before initiating experiments. Fresh controls were used in each experiment and experimental treatment groups were assessed over 4-5 days post-rewarming.
Vitrification Methods: The constructs were gradually infiltrated with precooled vitrification formulations at 4° C. in six steps with 0%, 12.5%, 25%, 50%, 75% and 100% of each formulation to achieve a final cryoprotectant concentration. After rewarming, the vitrification solution was removed in seven sequential steps at 4° C. into culture medium as previously described (see Song et al., Vitreous cryopreservation maintains the function of vascular grafts, Nature Biotechnology, 8(3):296-9, Epub 2000/03/04, doi:10.1038/73737, PubMed PMID: 10700144 (2000); and Song et al., Vitreous Preservation of Rabbit Articular Cartilage, Cell Preservation Technology, 2 (1); 67-74 (2004)).
Once loaded with vitrification solution the construct can be cooled to storage temperature and rewarmed using several methods. (1) The constructs were placed in glass scintillation vials (Diam.×H, 25 mm×60 mm) containing 1.5 mL of pre-cooled vitrification solution with 0.3 mL solution inside the well insert. Then 1 mL of 2-methylbutane (isopentane, freezing point: −160° C., density: 0.62) was placed on top of the vitrification solution in the vial and 0.2 mL inside the well insert at 4° C. to prevent direct air contact. Samples were cooled rapidly (approximately 45° C./minute) to −100° C. by placing the samples in a pre-cooled bath containing isopentane in a −135° C. mechanical storage freezer. Upon achieving −100° C. the specimens were removed from the bath and stored at −135° C. in the mechanical storage freezer, which results in slow cooling (3° C./minute) to −135° C. The samples were held at −135° C. for a minimum of 24 hours. The constructs were rewarmed in two stages, first, slow warming to −100° C. (approximately 30° C./minute) at the top of the mechanical storage freezer and then rapidly warmed to either 0° C. or ±−10° C. approximately 225° C./min) in a 30% ME2SO bath at room temperature. (2) The constructs in inserts are placed within the well of a deep well plate. There is 0.6 mL vitrification solution in the well and 0.2 mL solution in the insert. […]
Resazurin Assay: Was used to measure the metabolic activity and has the advantage of being non-toxic so constructs can be assessed before and several times after treatment. […]

Row | Structure (SMILES) | Effect of additive in culture medium on construct viability | Effect of additive in culture medium on construct viability (listed as QVD) | Effect of additive in culture medium on construct viability (listed as αT)
1 | CC(C)[C@H](NC(=O)c1ccc2ccccc2n1)C(=O)N[C@@H](CC(=O)O)C(=O)COc1c(F)cccc1F [Q-VD-OPH, quinoline-Val-Asp-difluorophenoxymethyl ketone] | improved viability | significant improvement | –
2 | Cc1c(C)c2c(c(C)c1O)CC[C@@](C)(CCC[C@H](C)CCC[C@H](C)CCCC(C)C)O2 [α-tocopherol] | improved viability | – | significant improvement
